# Values quoted from earlier work as cited in US11931369B1, “Compositions and methods for treating epilepsy” (POVIVA CORP, priority 2023, dated 2024).
# Read-outs that look alike come from different tables or passages of the source.
smiles,measurement,setting,value
"C=C(C)[C@@H]1CCC(C)=C[C@H]1c1c(O)cc(CCCCC)cc1O [Cannabidiol, 2-[(1R,6R)-6-Isopropenyl-3-methylcyclohex-2-en-1-yl]-5-pentylbenzene-1,3-diol]","Plasma concentration on Day 22 at target CBD dose, 5 hours, Mean",5 mg/kg/day (N = 10),72.1 ng/mL
same,"Plasma concentration on Day 22 at target CBD dose, Pre-dose, Mean",5 mg/kg/day (N = 10),23.0 ng/mL
same,"Plasma concentration on Day 22 at target CBD dose, […], Mean",5 mg/kg/day (N = 10),130 ng/mL
same,"Plasma concentration on Day 1 at starting CBD dose, 5 hours, Mean",5 mg/kg/day group (N = 10),10.0 ng/mL
same,"Plasma concentration on Day 1 at starting CBD dose, Pre-dose, Mean",5 mg/kg/day group (N = 10),0 ng/mL
same,"Plasma concentration on Day 1 at starting CBD dose, […], Mean",5 mg/kg/day group (N = 10),37.6 ng/mL
same,"Plasma concentration on Day 22 at target CBD dose, 5 hours, Mean",10 mg/kg/day (N = 8),288 ng/mL
same,"Plasma concentration on Day 22 at target CBD dose, Pre-dose, Mean",10 mg/kg/day (N = 8),62.1 ng/mL
same,"Plasma concentration on Day 22 at target CBD dose, […], Mean",10 mg/kg/day (N = 8),242 ng/mL
same,"Plasma concentration on Day 1 at starting CBD dose, 5 hours, Mean",10 mg/kg/day group (N = 8),11.3 ng/mL
same,"Plasma concentration on Day 1 at starting CBD dose, Pre-dose, Mean",10 mg/kg/day group (N = 8),0 ng/mL
same,"Plasma concentration on Day 1 at starting CBD dose, […], Mean",10 mg/kg/day group (N = 8),34.4 ng/mL
same,"Plasma concentration on Day 22 at target CBD dose, 5 hours, Mean",20 mg/kg/day (N = 9),308 ng/mL
same,"Plasma concentration on Day 22 at target CBD dose, Pre-dose, Mean",20 mg/kg/day (N = 9),121 ng/mL
same,"Plasma concentration on Day 22 at target CBD dose, […], Mean",20 mg/kg/day (N = 9),380 ng/mL
same,"Plasma concentration on Day 1 at starting CBD dose, 5 hours, Mean",20 mg/kg/day group (N = 9),25.3 ng/mL
same,"Plasma concentration on Day 1 at starting CBD dose, Pre-dose, Mean",20 mg/kg/day group (N = 9),0 ng/mL
same,"Plasma concentration on Day 1 at starting CBD dose, […], Mean",20 mg/kg/day group (N = 9),29.3 ng/mL
